The text below walks through data of patent US7071232B1, “Small molecules that increase the conversion of food to body weight gain” (priority 1998, dated 2006).

Assay [1] has as its system Peterson×Hubbard male broiler chicks. Particulars: in vivo.
Assay [2] shares this test system. Particulars: in vivo. This is another data set of the same source.
The subject of assay [3] is Avian x Ross broiler chicks. The assay can be described thus: Second experiment, less environmental stress: feed efficiency ratios through day 14. Format: in vivo. Particulars: for Feed efficiency ratio, MEAN: through day 14; for conversion of feed to weight vs saline (in words): day 14.

Values joined by “and” are separate entries in the source; they are usually repeats but may differ in a detail not shown here. Identical values can stand only once. Like-named read-outs stand apart in the source and are kept apart here.

`NCCC(=O)NCCSSCCNC(=O)CCN` [beta-alethine]: the “Survival (% Alive)” value in assay [1] was 96% and 100% and 99% and 98%; in assay [1] (sc) it was 100%. Also, the “chicks died in one pen” value in assay [1] amounted to 5. This molecule had a mortality rate in assay [1] of 0%. In assay [1] (sc), the “# dead from all causes of death (cumulative)” value amounted to 0. For the same molecule, the “Deliverable Weight Ratio” value in assay [2] came to 1.367. Besides, the “Deliverable Weight Ratio, % improvement vs negative control” value in assay [2] was 10.8%. For the same molecule, in assay [2], the “Feed Efficiency” value was 1.298. In assay [2], the “Feed Efficiency, % improvement vs negative control” value came to 7.9%. Further, the “% decrease over saline control, saline #1” value was 0.34% in assay [3] (2 pg in ovo vs saline in ovo #1), 2.39% in assay [3] (2 ng in ovo + fed in water (2 ng weekly) vs saline in ovo #1) and 3.21% in assay [3] (2 ng in ovo vs saline in ovo #1). Besides, the “% decrease over saline control, saline #2” value in assay [3] (2 pg in ovo vs saline in ovo #2) is on record as −0.34%; in assay [3] (2 ng in ovo + fed in water (2 ng weekly) vs saline in ovo #2), 1.73%. Also, the “Feed efficiency ratio, MEAN” value in assay [3] (2 pg per bird in ovo) was 1.181; in assay [3] (2 pg per bird sc), 1.173; in assay [3] (2 ng in ovo + fed in water (2 ng weekly)), 1.157; in assay [3] (2 ng per bird in ovo) it was 1.147; in assay [3] (2 ng per bird sc) it was 1.150. The entries for the “% decrease over saline control” value in assay [3] (2 pg sc vs saline s.c. control) and in assay [3] (2 ng sc vs saline s.c. control) were −0.89% and 1.16%, respectively. Also, the “conversion of feed to weight vs saline (in words)” value in assay [3] (2 ng in ovo) is given as “significantly greater conversion of feed to weight”; in assay [3] (2 ng s.c., not significant vs s.c. saline), “significantly better than saline given in ovo”. The “average decrease in feed efficiency ratios” value in assay [3] (normal flock of Avian×Ross broiler chicks) is “about 4%”.
